#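 GI50 is the concentration that inhibits growth by half. At the TGI there is no net growth.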
# How the values were obtained:
# Assay in all cases: NCI tumour cell line growth inhibition, 384-well format
# [1] = test system: MOLT-4 leukemia
# [2] = test system: HOP-92 NSCLC
# [3] = test system: HCT-116 colon
# [4] = test system: NCI-H460 NSCLC
# [5] = test system: SK-OV-3 ovarian
# [6] = test system: M14 melanoma
# [7] = test system: HCC-2998 colon
# [8] = test system: T-47D breast
# [9] = test system: CCRF-CEM leukemia
# [10] = test system: NCI-H23 lung
# [11] = test system: SF-295 CNS
# [12] = test system: MDA-MB-468 breast
# [13] = test system: ACHN renal
# [14] = test system: LOX IMVI melanoma
# [15] = test system: SF-539 CNS
# [16] = test system: PC-3 prostate
# [17] = test system: SN12C renal
# [18] = test system: MDA-MB-435 melanoma
# [19] = test system: SW-620 colon
# [20] = test system: BT-549 breast
# [21] = test system: OVCAR-8 ovarian
# [22] = test system: NCI-H322M lung
# [23] = test system: RXF 393 renal
# [24] = test system: NCI/ADR-RES ovarian
# [25] = test system: UACC-257 melanoma
# [26] = test system: TK-10 renal
# [27] = test system: UO-31 renal
# [28] = test system: OVCAR-3 ovarian
# [29] = test system: OVCAR-5 ovarian
# [30] = test system: UACC-62 melanoma
# [31] = test system: IGROV1 ovarian
# [32] = test system: NCI-H226 lung
# [33] = test system: SF-268 CNS
# [34] = test system: A549 NSCLC
# [35] = test system: RPMI-8226 leukemia
# [36] = test system: COLO 205 colon
# [37] = test system: KM12 colon
# [38] = test system: SR leukemia
# [39] = test system: HOP-62 NSCLC
# [40] = test system: SK-MEL-2 melanoma
# [41] = test system: 786-0 renal
# [42] = test system: OVCAR-4 ovarian
# [43] = test system: HL-60(TB) leukemia
# [44] = test system: SK-MEL-28 melanoma
# [45] = test system: SNB-19 CNS
# [46] = test system: HT29 colon
# [47] = test system: CAKI-1 renal
# [48] = test system: MCF7 breast
# [49] = test system: SK-MEL-5 melanoma
# [50] = test system: A498 renal
# [51] = test system: DU-145 prostate
# [52] = test system: NCI-H522 lung
# [53] = test system: HCT-15 colon
# [54] = test system: MALME-3M melanoma
# [55] = test system: MDA-MB-231 breast
# [56] = test system: U251 glioblastoma
smiles,measurement,setting,value
Cc1ncc(NC(=O)c2ccc(CN3CCN(C)CC3)c(C(F)(F)F)c2)cc1Nc1nccc(-c2cccnc2)n1,GI50,[1],1.28 µM
same,TGI,[1],2.54 µM
same,GI50,[2],6.68 µM
same,TGI,[2],19.4 µM
same,GI50,[3],1.18 µM
same,TGI,[3],2.43 µM
same,GI50,[4],1.65 µM
same,TGI,[4],3.26 µM
same,GI50,[5],1.94 µM
same,TGI,[5],3.89 µM
same,GI50,[6],0.798 µM
same,TGI,[6],12.3 µM
same,GI50,[7],3.72 µM
same,TGI,[7],17.6 µM
same,GI50,[8],12.1 µM
same,TGI,[8],24.6 µM
same,GI50,[9],1.61 µM
same,TGI,[9],2.96 µM
same,GI50,[10],13.7 µM
same,TGI,[10],26.7 µM
same,GI50,[11],19.5 µM
same,TGI,[11],33.7 µM
same,GI50,[12],10.8 µM
same,TGI,[12],22.8 µM
same,GI50,[13],12.6 µM
same,TGI,[13],25.2 µM
same,GI50,[14],1.95 µM
same,TGI,[14],3.37 µM
same,GI50,[15],1.32 µM
same,TGI,[15],2.6 µM
same,GI50,[16],13.6 µM
same,TGI,[16],26.6 µM
same,GI50,[17],17.4 µM
same,TGI,[17],31.2 µM
same,GI50,[18],4.56 µM
same,TGI,[18],19.2 µM
same,GI50,[19],1.84 µM
same,TGI,[19],3.29 µM
same,GI50,[20],2.17 µM
same,TGI,[20],3.69 µM
same,GI50,[21],11.3 µM
same,TGI,[21],23.5 µM
same,GI50,[22],10.9 µM
same,TGI,[22],22.9 µM
same,GI50,[23],1.66 µM
same,TGI,[23],3.59 µM
same,GI50,[24],10.6 µM
same,TGI,[24],22.4 µM
same,GI50,[25],1.06 µM
same,TGI,[25],2.24 µM
same,GI50,[26],12.9 µM
same,TGI,[26],25.5 µM
same,GI50,[27],11.4 µM
same,TGI,[27],23.5 µM
same,GI50,[28],1.74 µM
same,TGI,[28],3.31 µM
same,GI50,[29],14.4 µM
same,TGI,[29],27.6 µM
same,GI50,[30],1.35 µM
same,TGI,[30],13.8 µM
same,GI50,[31],13.2 µM
same,TGI,[31],26 µM
same,GI50,[32],12.4 µM
same,TGI,[32],25 µM
same,GI50,[33],10.4 µM
same,TGI,[33],22.2 µM
same,GI50,[34],2.54 µM
same,TGI,[34],8.6 µM
same,GI50,[35],0.745 µM
same,TGI,[35],2 µM
same,GI50,[36],1.27 µM
same,TGI,[36],14.5 µM
same,GI50,[37],1.57 µM
same,TGI,[37],3.11 µM
same,GI50,[38],1.66 µM
same,TGI,[38],3.02 µM
same,GI50,[39],13.8 µM
same,TGI,[39],26.8 µM
same,GI50,[40],2.46 µM
same,TGI,[40],8.05 µM
same,GI50,[41],1.51 µM
same,TGI,[41],2.89 µM
same,GI50,[42],2.63 µM
same,TGI,[42],14.1 µM
same,GI50,[43],0.956 µM
same,TGI,[43],2.12 µM
same,GI50,[44],1.78 µM
same,TGI,[44],14.9 µM
same,GI50,[45],15.7 µM
same,TGI,[45],29.2 µM
same,GI50,[46],1.04 µM
same,TGI,[46],2.22 µM
same,GI50,[47],7.3 µM
same,TGI,[47],19.4 µM
same,GI50,[48],1.43 µM
same,TGI,[48],2.79 µM
same,GI50,[49],1.44 µM
same,TGI,[49],16.4 µM
same,GI50,[50],1.89 µM
same,TGI,[50],3.55 µM
same,GI50,[51],15.4 µM
same,TGI,[51],28.8 µM
same,GI50,[52],3.05 µM
same,TGI,[52],17.8 µM
same,GI50,[53],1.82 µM
same,TGI,[53],3.6 µM
same,GI50,[54],0.289 µM
same,TGI,[54],1.46 µM
same,GI50,[55],1.55 µM
same,TGI,[55],2.98 µM
same,GI50,[56],1.82 µM
same,TGI,[56],3.31 µM

# Reference: PubChem BioAssay (NCI)
